Measured values as given in patent publication US12544375B2, “Small molecule therapeutic for parkinson's disease paired with a biomarker of therapeutic activity” (The Board of Trustees of the Leland Stanford Junior …, priority 2019, dated 2026).

System: OPA1
Experiment: OPA1 level in fibroblasts, Western blotting
Assay type: cell-based, human
Conditions: FIG. 2D
Description: FIG. 2A-FIG. 2F. Miro1 Reducer Eliminates the Miro1 Defect in PD Fibroblasts. (FIG. 2A) Chemical properties of Miro1 Reducer. (FIG. 2B) Wild-type flies (w^1118) were fed with DMSO alone (0 μM Miro1 Reducer) or Miro1 Reducer in DMSO at 250 μM for 7 days, and lysed and blotted as indicated. The band intensities are normalized to those of Tubulin from the same blots. n=4. (FIG. 2C-FIG. 2E) Fibroblasts were treated, lysed, and blotted as indicated. (FIG. 2C) Band intensities are normalized to those of GAPDH from the same blots and compared to “Healthy-1, no treatment” except otherwise indicated. n=4. (FIG. 2D) Band intensities are normalized to those of ATP5β from the same blots and expressed as a percentage of the mean of “0 μM Miro1 Reducer with CCCP”. Mean±S.E.M is shown. n=3. (FIG. 2E) Band intensities are normalized to those of GAPDH from the same blots and compared to “Healthy-1, no CCCP, no MG132” except otherwise indicated. n=4. (FIG. 2F) Healthy-1 and PD-2 fibroblasts were transfected as indicated, and immunostained with anti-Myc (Miro1, green) and stained with Dapi (blue). The Miro1 intensity is normalized to that of mito-dsRed from the same cell and quantified across 37-62 cells from 5 fields each transfection, 3 independent transfections. Scale bars: 50 μm. For (FIG. 2C-FIG. 2F), both CCCP and Miro1 Reducer were dissolved in DMSO. […]

O=C(Nc1ccc(Nc2cc(-n3ccnc3)ncn2)cc1)Nc1cccc(F)c1 [Miro1 Reducer]
IMM dynamin GTPase OPA1 level: not reduced
